Assay results: patent US9040255B2, “Use of diazolidinyl urea for anti-clumping of biological samples” (BIOCEPT, INC., priority 2010, dated 2015)

Test system: cell clumps in blood
Assay: Cell clumping of biological samples (blood) processed through a microfluidic device
Type: cell-based
Conditions: DU 2% final working concentration, incubated at room temperature for 30 minutes or overnight, compared with samples without DU (FIGS. 1-4)
Description: In this experiment, DU was dissolved in PBS to make an 80% (w/v) aqueous concentrated solution. The concentrated solution was then added to biological samples in such a way as to yield a final working concentration of 2%. Biological samples were gently mixed with DU solution to ensure equal distribution of DU, and the resulting mixture was incubated at room temperature for at least 30 minutes.
Samples were then processed according to pre-determined protocols.
FIG. 1 provides an example of samples without being treated with DU and processed through a microfluidic device. The white strands are cell clumps.
FIG. 2 provides an example of samples being treated with DU and processed through a microfluidic device (for this particular experiment, the sample and DU were incubated overnight).
FIG. 3 provides another example of samples without being treated with DU and processed through a microfluidic device.
FIG. 4 provides another example of samples being treated with DU and processed through a microfluidic device (for this particular experiment, the sample and DU were incubated for 30 minutes.

O=C(NCO)N(CO)C1(CO)C(=O)NC(=O)N1CO (stereo not shown) [DU, diazolidinyl urea]
reduction of cellular clumping: great improvement for reducing cellular clumping
